Results as given in ChEMBL document CHEMBL5325480, “Discovery and Biosynthetic Studies of a Highly Reduced Cinnamoyl Lipid, Tripmycin A, from an Endophytic Streptomyces sp” (J Nat Prod, 2023).
Active and inactive are the calls of the source. The calls are words filed in the database; no cut-off is given here.

What was measured:
A549 = assay: Cytotoxicity against human A549 cells assessed as inhibition of cell growth incubated for 72 hrs by CCK-8 assay; assay type: functional, cell-based; conditions: A549, 72 h
Caco-2 = assay: Cytotoxicity against human Caco-2 cells assessed as inhibition of cell growth incubated for 72 hrs by CCK-8 assay; assay type: functional, cell-based; conditions: Caco-2, 72 h
Aspergillus flavus = assay: Antimicrobial activity against Aspergillus flavus AS3.3950 incubated for 24 hrs by absorbance based analysis; assay type: functional, organism-based
Saccharomyces cerevisiae = assay: Antimicrobial activity against Saccharomyces cerevisiae AS2.399 incubated for 24 hrs by absorbance based analysis; assay type: functional, organism-based
Aspergillus ochraceus = assay: Antimicrobial activity against Aspergillus ochraceus AS3.3876 incubated for 24 hrs by absorbance based analysis; assay type: functional, organism-based
Aspergillus cristatus = assay: Antimicrobial activity against Aspergillus cristatus CB10002 incubated for 24 hrs by absorbance based analysis; assay type: functional, organism-based
Staphylococcus aureus = assay: Antimicrobial activity against Staphylococcus aureus ATCC 29213 incubated for 24 hrs by absorbance based analysis; assay type: functional, organism-based
Escherichia coli = assay: Antimicrobial activity against Escherichia coli DH5alpha incubated for 24 hrs by absorbance based analysis; assay type: functional, organism-based
HepG2 = assay: Cytotoxicity against human HepG2 cells assessed as inhibition of cell growth incubated for 72 hrs by CCK-8 assay; assay type: functional, cell-based; conditions: HepG2, 72 h
MDA-MB-231 = assay: Cytotoxicity against human MDA-MB-231 cells assessed as inhibition of cell growth incubated for 72 hrs by CCK-8 assay; assay type: functional, cell-based; conditions: MDA-MB-231, 72 h

| SMILES | IC50 (A549) [µM] | IC50 (Caco-2) [µM] | Activity (Aspergillus flavus) | Activity (Saccharomyces cerevisiae) | Activity (Aspergillus ochraceus) | Activity (Aspergillus cristatus) | Activity (Staphylococcus aureus) | Activity (Escherichia coli) | IC50 (HepG2) [µM] | IC50 (MDA-MB-231) [µM] |
| --- | --- | --- | --- | --- | --- | --- | --- | --- | --- | --- |
| CCCCCCCCCCCCC(=O)O [TRIDECANOATE] | 250 | 280 |  |  |  |  |  |  |  |  |
| CCCC/C=C\CCCCCCCC(=O)O [MYRISTOLEIC ACID] | 270 | 270 |  |  |  |  |  |  |  |  |
| Cc1ccccc1/C=C/CCCCCCCCCCC(=O)O | 0.35 | 4.6 | inactive | inactive | inactive | inactive | inactive | inactive | 2.2 | 0.45 |
| C=CCCCCCCCCCCC(=O)O | 120 | 140 |  |  |  |  |  |  |  |  |
| Cc1ccccc1/C=C/CCC(=O)O | 64 | > 1000 | inactive | inactive | inactive | inactive | inactive | inactive | 740 | 190 |
| CCCCCCCCCCCCCC(=O)O [MYRISTIC ACID] | 200 | > 1000 |  |  |  |  |  |  |  |  |
